ChEMBL document CHEMBL1151385, “Antineoplastic Agents 78. Isolation of Palystatins 1-3 From the Indian Ocean Palythoa liscia” (J Nat Prod, 1982)

Columns and labels:
Ehrlich = experiment: In vivo cytotoxicity against mouse EAC cells; format: functional, organism-based
P388 = experiment: In vivo cytotoxicity against mouse P388 cells assessed as life extension at 0.1 ug/kg; format: functional, organism-based

`C=C(/C=C\C[C@@H](O)[C@@H](O)[C@H](O)C/C=C/C=C\[C@@H](O)C[C@@H]1O[C@H](C[C@@H](O)[C@H](O)C[C@H]2O[C@H]([C@H](O)[C@H](O)CC[C@H](O)/C=C/[C@H](C)[C@@H](O)C[C@]3(O)O[C@H](C[C@@H](O)CCCCCCC[C@@]45C[C@@H](C)C[C@@](C)(O4)[C@@H](C[C@@H](C)CCCCC[C@@H](O)[C@H](O)[C@H](O)[C@@H](O)[C@H](O)[C@H]4O[C@H](C[C@H](O)[C@H](O)/C(C)=C/[C@H](O)C[C@@H](C)[C@H](O)C(=O)N/C=C/C(=O)NCCCO)[C@H](O)[C@@H](O)[C@@H]4O)O5)[C@H](O)[C@@H](O)[C@H]3O)C[C@@H](O)[C@@H]2O)[C@@H](O)[C@H](O)[C@H]1O)CC[C@H](O)[C@@H](O)[C@H](O)[C@H](C)C[C@H]1O[C@H](/C=C\[C@@H](O)CC[C@@H]2C[C@@H]3C[C@H](O2)[C@@H](CC[C@H]2O[C@H](CN)C[C@H]2O)O3)[C@@H](O)[C@H](O)[C@H]1O` gave an Activity (Ehrlich) of 0.34 µg/kg and an Activity (P388) of 32%.
